Source: patent US20230085307A1, “PYRIDAZINONE COMPOUND AND HERBICIDE” (NISSAN CHEMICAL CORPORATION, priority 2019, published 2023)

How the values were obtained:
late watergrass [1] = assay: Test Example 1: herbicidal activity, application before weed generation under submerged conditions (Table 16, symbol A); type: in vivo, late watergrass (Echinochloa oryzicola); conditions: 320 g/ha applied herbicide
Summary of the method: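 Submerged Wagner pots (alluvial soil, 4 cm water) sown with weed seeds and planted with 2.5-leaf rice seedlings; emulsifiable concentrate diluted in water applied to water surface on sowing day. Held in greenhouse at 25-30 °C; injury scored 0-5 by herbicidal rate after three weeks.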

late watergrass [2] = assay: Test Example 2: herbicidal activity, application during weed generation under submerged conditions (Table 17, symbol A); type: in vivo, late watergrass (Echinochloa oryzicola); conditions: AAH 320 g/ha; application during weed generation, submerged conditions
Summary of the method: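 In this pot test, flooded alluvial soil (water depth 4 cm) holds all three species sown as a mixture. Once seedlings have one to two leaves, the compound's emulsion, thinned with water to the intended dose, is poured on the water; grading follows after three weeks on the earlier criteria.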

Chinese sprangletop = assay: Test Example 3: herbicidal effect by foliage application, Wagner pot (Table 18, symbol D); type: in vivo, chinese sprangletop (Leptochloa chinensis); conditions: 320 g/ha
Summary of the method: (§1)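 Plants were sown in alluvial soil held under 0.1–0.5 cm standing water and grown 14 days in a greenhouse at 25–30 °C. An emulsifiable formulation, water-diluted to the set dose, was then sprayed onto the foliage, and effects were scored three weeks later using previously defined criteria.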

rice flat sedge = assay: Test Example 3: herbicidal effect by foliage application, Wagner pot (Table 18, symbol E); type: in vivo, rice flat sedge (Cyperus iria); conditions: 320 g/ha
Summary of the method: as §1

southern crabgrass = assay: Test Example 4: herbicidal effect by soil treatment (Table 19, symbol F); type: in vivo, southern crabgrass (Digitaria ciliaris); conditions: 320 g/ha
Summary of the method: (§2)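 Emulsion of test compound, water-diluted to predetermined amount, sprayed on soil after sowing (seed depth ~1.5 cm, sterilized diluvial soil). Greenhouse, 25–30° C. Effect graded at three weeks post-spray.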

wild oat [3] = assay: Test Example 4: herbicidal effect by soil treatment (Table 19, symbol I); type: in vivo, wild oat (Avena fatua); conditions: 320 g/ha
Summary of the method: as §2

Italian ryegrass [4] = assay: Test Example 4: herbicidal effect by soil treatment (Table 19, symbol K); type: in vivo, Italian ryegrass (Lolium multiflorum); conditions: 320 g/ha
Summary of the method: as §2

windgrass = assay: Test Example 4: herbicidal effect by soil treatment (Table 19, symbol L); type: in vivo, windgrass (Apera spica-venti); conditions: 320 g/ha
Summary of the method: as §2

lambsquarters [5] = assay: Test Example 4: herbicidal effect by soil treatment (Table 19, symbol O); type: in vivo, lambsquarters (Chenopodium album); conditions: 320 g/ha
Summary of the method: as §2

chickweed = assay: Test Example 4: herbicidal effect by soil treatment (Table 19, symbol P); type: in vivo, common chickweed (Stellaria media); conditions: 320 g/ha
Summary of the method: as §2

barnyard grass = assay: Test Example 5: herbicidal effect by foliage application, plastic box (Table 20, symbol H); type: in vivo, barnyard grass (Echinochloa crus-galli); conditions: foliage application, 320 g/ha, 3 weeks after application
Summary of the method: (§3)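 Post-emergence foliar test in sterilized diluvial soil. Compound applied as water-diluted emulsion at a predetermined rate to 14-day-old plants; evaluation at three weeks.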

wild oat [6] = assay: Test Example 5: herbicidal effect by foliage application, plastic box (Table 20, symbol I); type: in vivo, wild oat (Avena fatua); conditions: foliage application, 320 g/ha, 3 weeks after application
Summary of the method: as §3

Italian ryegrass [7] = assay: Test Example 5: herbicidal effect by foliage application, plastic box (Table 20, symbol K); type: in vivo, Italian ryegrass (Lolium multiflorum); conditions: foliage application, 320 g/ha, 3 weeks after application
Summary of the method: as §3

lambsquarters [8] = assay: Test Example 5: herbicidal effect by foliage application, plastic box (Table 20, symbol O); type: in vivo, lambsquarters (Chenopodium album); conditions: foliage application, 320 g/ha, 3 weeks after application
Summary of the method: as §3

## CCCC(=O)Oc1c(C)nn(C)c(=O)c1-c1c(-c2ccc(Cl)cc2)sc2ccc(F)cc12 [2-011]
Late watergrass [1]
  Herbicidal effect on A: late watergrass (grade 0-5): 3 (Herbicidal rate of 40% or more and less than 70%)
Late watergrass [2]
  herbicidal effect rating, A: late watergrass: 2 (Herbicidal rate of 20% or more and less than 40%)
Chinese sprangletop
  herbicidal effect on D (Chinese sprangletop), rating 0-5: 4 (Herbicidal rate of 70% or more and less than 90%)
Rice flat sedge
  herbicidal effect on E (rice flat sedge), rating 0-5: 5 (Herbicidal rate of 90% or more (almost completely withered))
Southern crabgrass
  herbicidal effect rating, F: southern crabgrass: 3 (Herbicidal rate of 40% or more and less than 70%)
Wild oat [3]
  herbicidal effect rating, I: wild oat: 0 (Herbicidal rate of 5% or less (almost no effect))
Italian ryegrass [4]
  herbicidal effect rating, K: Italian ryegrass: 5 (Herbicidal rate of 90% or more (almost completely withered))
windgrass
  herbicidal effect rating, L: windgrass: 2 (Herbicidal rate of 20% or more and less than 40%)
Lambsquarters [5]
  herbicidal effect rating, O: lambsquarters: 5 (Herbicidal rate of 90% or more (almost completely withered))
chickweed
  herbicidal effect rating, P: chickweed: 2 (Herbicidal rate of 20% or more and less than 40%)
Barnyard grass
  effect on barnyard grass (H): 5 (Herbicidal rate of 90% or more (almost completely withered))
Wild oat [6]
  effect on wild oat (I): 3 (Herbicidal rate of 40% or more and less than 70%)
Italian ryegrass [7]
  effect on Italian ryegrass (K): 5 (Herbicidal rate of 90% or more (almost completely withered))
Lambsquarters [8]
  effect on lambsquarters (O): 5 (Herbicidal rate of 90% or more (almost completely withered))

## CCCC(=O)Oc1c(C)nn(C)c(=O)c1-c1c(-c2ccc(CC)cc2)sc2ccc(F)cc12 [2-016]
Late watergrass [1]
  Herbicidal effect on A: late watergrass (grade 0-5): 5 (Herbicidal rate of 90% or more (almost completely withered))
Late watergrass [2]
  herbicidal effect rating, A: late watergrass: 3 (Herbicidal rate of 40% or more and less than 70%)
Chinese sprangletop
  herbicidal effect on D (Chinese sprangletop), rating 0-5: 5 (Herbicidal rate of 90% or more (almost completely withered))
Rice flat sedge
  herbicidal effect on E (rice flat sedge), rating 0-5: 5 (Herbicidal rate of 90% or more (almost completely withered))
Southern crabgrass
  herbicidal effect rating, F: southern crabgrass: 0 (Herbicidal rate of 5% or less (almost no effect))
Wild oat [3]
  herbicidal effect rating, I: wild oat: 0 (Herbicidal rate of 5% or less (almost no effect))
Italian ryegrass [4]
  herbicidal effect rating, K: Italian ryegrass: 3 (Herbicidal rate of 40% or more and less than 70%)
windgrass
  herbicidal effect rating, L: windgrass: 1 (Herbicidal rate of 5% or more and less than 20%)
Lambsquarters [5]
  herbicidal effect rating, O: lambsquarters: 5 (Herbicidal rate of 90% or more (almost completely withered))
chickweed
  herbicidal effect rating, P: chickweed: 1 (Herbicidal rate of 5% or more and less than 20%)
Barnyard grass
  effect on barnyard grass (H): 3 (Herbicidal rate of 40% or more and less than 70%)
Wild oat [6]
  effect on wild oat (I): 3 (Herbicidal rate of 40% or more and less than 70%)
Italian ryegrass [7]
  effect on Italian ryegrass (K): 5 (Herbicidal rate of 90% or more (almost completely withered))
Lambsquarters [8]
  effect on lambsquarters (O): 5 (Herbicidal rate of 90% or more (almost completely withered))

## C=Cc1ccc(-c2sc3ccc(F)cc3c2-c2c(O)c(C)nn(C)c2=O)cc1 [2-018]
Late watergrass [1]
  Herbicidal effect on A: late watergrass (grade 0-5): 0 (Herbicidal rate of 5% or less (almost no effect))
Late watergrass [2]
  herbicidal effect rating, A: late watergrass: 3 (Herbicidal rate of 40% or more and less than 70%)
Chinese sprangletop
  herbicidal effect on D (Chinese sprangletop), rating 0-5: 4 (Herbicidal rate of 70% or more and less than 90%)
Rice flat sedge
  herbicidal effect on E (rice flat sedge), rating 0-5: 5 (Herbicidal rate of 90% or more (almost completely withered))
Southern crabgrass
  herbicidal effect rating, F: southern crabgrass: 0 (Herbicidal rate of 5% or less (almost no effect))
Wild oat [3]
  herbicidal effect rating, I: wild oat: 0 (Herbicidal rate of 5% or less (almost no effect))
Italian ryegrass [4]
  herbicidal effect rating, K: Italian ryegrass: 4 (Herbicidal rate of 70% or more and less than 90%)
windgrass
  herbicidal effect rating, L: windgrass: 2 (Herbicidal rate of 20% or more and less than 40%)
Lambsquarters [5]
  herbicidal effect rating, O: lambsquarters: 4 (Herbicidal rate of 70% or more and less than 90%)
chickweed
  herbicidal effect rating, P: chickweed: 3 (Herbicidal rate of 40% or more and less than 70%)
Barnyard grass
  effect on barnyard grass (H): 4 (Herbicidal rate of 70% or more and less than 90%)
Wild oat [6]
  effect on wild oat (I): 5 (Herbicidal rate of 90% or more (almost completely withered))
Italian ryegrass [7]
  effect on Italian ryegrass (K): 4 (Herbicidal rate of 70% or more and less than 90%)
Lambsquarters [8]
  effect on lambsquarters (O): 5 (Herbicidal rate of 90% or more (almost completely withered))

## COCc1ccc(-c2sc3ccc(F)cc3c2-c2c(O)c(C)nn(C)c2=O)cc1 [2-022]
Late watergrass [1]
  Herbicidal effect on A: late watergrass (grade 0-5): 2 (Herbicidal rate of 20% or more and less than 40%)
Late watergrass [2]
  herbicidal effect rating, A: late watergrass: 2 (Herbicidal rate of 20% or more and less than 40%)
Chinese sprangletop
  herbicidal effect on D (Chinese sprangletop), rating 0-5: 4 (Herbicidal rate of 70% or more and less than 90%)
Rice flat sedge
  herbicidal effect on E (rice flat sedge), rating 0-5: 4 (Herbicidal rate of 70% or more and less than 90%)
Southern crabgrass
  herbicidal effect rating, F: southern crabgrass: 3 (Herbicidal rate of 40% or more and less than 70%)
Wild oat [3]
  herbicidal effect rating, I: wild oat: 0 (Herbicidal rate of 5% or less (almost no effect))
Italian ryegrass [4]
  herbicidal effect rating, K: Italian ryegrass: 5 (Herbicidal rate of 90% or more (almost completely withered))
windgrass
  herbicidal effect rating, L: windgrass: 5 (Herbicidal rate of 90% or more (almost completely withered))
Lambsquarters [5]
  herbicidal effect rating, O: lambsquarters: 4 (Herbicidal rate of 70% or more and less than 90%)
chickweed
  herbicidal effect rating, P: chickweed: 3 (Herbicidal rate of 40% or more and less than 70%)
Barnyard grass
  effect on barnyard grass (H): 5 (Herbicidal rate of 90% or more (almost completely withered))
Wild oat [6]
  effect on wild oat (I): 3 (Herbicidal rate of 40% or more and less than 70%)
Italian ryegrass [7]
  effect on Italian ryegrass (K): 5 (Herbicidal rate of 90% or more (almost completely withered))
Lambsquarters [8]
  effect on lambsquarters (O): 4 (Herbicidal rate of 70% or more and less than 90%)

## CCCC(=O)Oc1c(C)nn(C)c(=O)c1-c1c(-c2ccc(COC)cc2)sc2ccc(F)cc12 [2-023]
Late watergrass [1]
  Herbicidal effect on A: late watergrass (grade 0-5): 2 (Herbicidal rate of 20% or more and less than 40%)
Late watergrass [2]
  herbicidal effect rating, A: late watergrass: 3 (Herbicidal rate of 40% or more and less than 70%)
Chinese sprangletop
  herbicidal effect on D (Chinese sprangletop), rating 0-5: 4 (Herbicidal rate of 70% or more and less than 90%)
Rice flat sedge
  herbicidal effect on E (rice flat sedge), rating 0-5: 5 (Herbicidal rate of 90% or more (almost completely withered))
Southern crabgrass
  herbicidal effect rating, F: southern crabgrass: 4 (Herbicidal rate of 70% or more and less than 90%)
Wild oat [3]
  herbicidal effect rating, I: wild oat: 0 (Herbicidal rate of 5% or less (almost no effect))
Italian ryegrass [4]
  herbicidal effect rating, K: Italian ryegrass: 4 (Herbicidal rate of 70% or more and less than 90%)
windgrass
  herbicidal effect rating, L: windgrass: 0 (Herbicidal rate of 5% or less (almost no effect))
Lambsquarters [5]
  herbicidal effect rating, O: lambsquarters: 5 (Herbicidal rate of 90% or more (almost completely withered))
chickweed
  herbicidal effect rating, P: chickweed: 3 (Herbicidal rate of 40% or more and less than 70%)
Barnyard grass
  effect on barnyard grass (H): 5 (Herbicidal rate of 90% or more (almost completely withered))
Wild oat [6]
  effect on wild oat (I): 0 (Herbicidal rate of 5% or less (almost no effect))
Italian ryegrass [7]
  effect on Italian ryegrass (K): 4 (Herbicidal rate of 70% or more and less than 90%)
Lambsquarters [8]
  effect on lambsquarters (O): 4 (Herbicidal rate of 70% or more and less than 90%)

## CCCC(=O)Oc1c(C)nn(C)c(=O)c1-c1c(-c2ccc(OC)cc2)sc2ccc(F)cc12 [2-027]
Late watergrass [1]
  Herbicidal effect on A: late watergrass (grade 0-5): 4 (Herbicidal rate of 70% or more and less than 90%)
Late watergrass [2]
  herbicidal effect rating, A: late watergrass: 3 (Herbicidal rate of 40% or more and less than 70%)
Chinese sprangletop
  herbicidal effect on D (Chinese sprangletop), rating 0-5: 4 (Herbicidal rate of 70% or more and less than 90%)
Rice flat sedge
  herbicidal effect on E (rice flat sedge), rating 0-5: 5 (Herbicidal rate of 90% or more (almost completely withered))
Southern crabgrass
  herbicidal effect rating, F: southern crabgrass: 3 (Herbicidal rate of 40% or more and less than 70%)
Wild oat [3]
  herbicidal effect rating, I: wild oat: 2 (Herbicidal rate of 20% or more and less than 40%)
Italian ryegrass [4]
  herbicidal effect rating, K: Italian ryegrass: 4 (Herbicidal rate of 70% or more and less than 90%)
windgrass
  herbicidal effect rating, L: windgrass: 0 (Herbicidal rate of 5% or less (almost no effect))
Lambsquarters [5]
  herbicidal effect rating, O: lambsquarters: 5 (Herbicidal rate of 90% or more (almost completely withered))
chickweed
  herbicidal effect rating, P: chickweed: 4 (Herbicidal rate of 70% or more and less than 90%)
Barnyard grass
  effect on barnyard grass (H): 5 (Herbicidal rate of 90% or more (almost completely withered))
Wild oat [6]
  effect on wild oat (I): 4 (Herbicidal rate of 70% or more and less than 90%)
Italian ryegrass [7]
  effect on Italian ryegrass (K): 5 (Herbicidal rate of 90% or more (almost completely withered))
Lambsquarters [8]
  effect on lambsquarters (O): 5 (Herbicidal rate of 90% or more (almost completely withered))
